Where “and” joins values, the source holds several entries; their conditions need not be identical. Identical values can stand only once.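 How tested: cells in 96-well plates exposed to compound for 48 hours at five concentrations. The concentration for 50% growth inhibition is given as GI50. TGI is the concentration that stops growth completely.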
Columns and labels:
Assay in all cases: NCI tumour cell line growth inhibition, 48 h
[1] = test system: A498 renal
[2] = test system: A549 NSCLC
[3] = test system: HCT-15 colon
[4] = test system: HT29 colon
[5] = test system: NCI-H522 lung
[6] = test system: OVCAR-4 ovarian
[7] = test system: SF-295 CNS
[8] = test system: SK-MEL-2 melanoma
[9] = test system: U251 CNS
[10] = test system: UACC-62 melanoma

Row | Structure (SMILES) | GI50 [1] | TGI [1] | GI50 [2] | TGI [2] | GI50 [3] | TGI [3] | GI50 [4] | TGI [4] | GI50 [5] | TGI [5] | GI50 [6] | TGI [6] | GI50 [7] | TGI [7] | GI50 [8] | TGI [8] | GI50 [9] | TGI [9] | GI50 [10] | TGI [10]
1 | C[CH2][Sn]([CH2]C)([O]C(=O)c1cc(OC)c(OC)c(OC)c1)[O][Sn]([CH2]C)([CH2]C)[O]C(=O)c1cc(OC)c(OC)c(OC)c1 | 25.6 µM | 43.9 µM | > 100 µM | > 100 µM | 43 µM | > 79 µM | 48.1 µM | > 100 µM | 1.91 µM | 5.65 µM | > 100 µM | > 100 µM | 76.5 µM | > 100 µM | 16.3 µM | 35.3 µM | 18.2 µM | 33.1 µM | 19.3 µM | 36.7 µM
2 | CC[C@]12C=CCN3CC[C@]4(C(=C(C(=O)OC)C1)Nc1ccccc14)[C@@H]32 | 7.12 µM | 20.2 µM | 12.4 µM | 31.8 µM | 2.68 µM | 10.4 µM | 3.41 µM | 12.8 µM | 3.24 µM | 14.1 µM | 4.4 µM | 17.5 µM | 13 µM | 26.6 µM | 4.45 µM | 17.7 µM | 3.64 µM | 16.4 µM | 2.89 µM | 12 µM
3 | Cn1cccc1C1CC(=O)N(CCC[Se]C#N)C1=O (stereo unspecified) | 1.3 µM | 2.78 µM | 2.07 µM | 5.17 µM | 2.35 µM | 6.43 µM | 2.72 µM | 28.6 µM | 1.87 µM | 4.04 µM | 2.35 µM | 14 µM | 1.81 µM | 3.29 µM | 2.13 µM | 5.31 µM | 1.72 µM | 3.48 µM | 1.87 µM | 3.91 µM
4 | O=[N+]([O-])c1ccc([I+]c2ccccc2)cc1 | – | 6.49 µM and 5.48 µM | 1.93 µM | – | 8.9 µM | 18.3 µM and 23.4 µM | 2.08 µM | 8.33 µM and 5.08 µM | 1.52 µM | 4.2 µM and 3.03 µM | 1.67 µM | 11.9 µM and 3.69 µM | 1.64 µM | 10.1 µM and 3.24 µM | 2.25 µM | 7.47 µM | 1.71 µM | 10.9 µM and 3.43 µM | 1.43 µM | 8.17 µM and 3.62 µM
5 | COc1cc(-c2cn(-c3ccc(Cl)cc3)c(=O)n2-c2ccccc2)cc(OC)c1OC | 18.7 µM | > 92.4 µM | > 46.6 µM | > 100 µM | > 100 µM | > 100 µM | 56.3 µM | > 100 µM | 45.1 µM | > 100 µM | 21.4 µM | > 90.7 µM | 55.7 µM | > 100 µM | > 25.9 µM | > 100 µM | 33.7 µM | > 100 µM | 32.5 µM | > 100 µM
6 | COc1cc2c(cc1OCCCN1CCN(CCCOc3cc4c(cc3OC)C(=O)C3CCC[C@H]3C=N4)CC1)N=C[C@@H]1CCCC1C2=O (stereo partly specified) | 2.17 µM | 7.49 µM | 35.8 µM | > 100 µM | 53.9 µM | > 100 µM | 23.3 µM | > 68.8 µM | 0.446 µM | > 29.6 µM | 74.3 µM | > 100 µM | 9.4 µM | 79.8 µM | 1.71 µM | 4.8 µM | 4.91 µM | > 100 µM | 6.49 µM | 15.2 µM
7 | Nc1nccc(C#Cc2cncnc2Nc2ccc(OCc3cccc(F)c3)c(Cl)c2)n1 | 5.05 µM | > 14.3 µM | 5.99 µM | > 15.6 µM | 3.69 µM | 11.4 µM | 4.57 µM | 9.05 µM | 2.23 µM | 5.88 µM | 9.53 µM | > 25 µM | 11.7 µM | > 25 µM | 4.98 µM | 9.34 µM | 3.82 µM | 7.42 µM | 4.09 µM | 7.68 µM
8 | CCN1C(=O)N(CC)C2C1NN=c1s/c(=C\c3ccc([N+](=O)[O-])cc3)c(=O)n12 (stereo unspecified) | 0.172 µM | 0.704 µM | 0.681 µM | > 100 µM | 0.394 µM | > 100 µM | 0.375 µM | > 100 µM | 0.323 µM | 6.94 µM | 0.744 µM | 10.5 µM | 0.371 µM | > 52.2 µM | 1.16 µM | > 100 µM | 0.506 µM | > 100 µM | 0.5 µM | > 100 µM
9 | O=C1/C(=C\c2ccccc2)CN(C(=O)c2ccccc2F)C/C1=C\c1ccccc1 | 2.63 µM | 13.2 µM | 3.2 µM | 12 µM | 1.88 µM | 4.11 µM | 1.48 µM | 4.17 µM | 1.78 µM | 3.47 µM | 3.04 µM | 11.2 µM | 2.24 µM | 5.77 µM | 2.95 µM | 8.3 µM | 1.68 µM | 3.26 µM | 1.68 µM | 3.41 µM
10 | CCN=C(N)CSS(=O)(=O)O | – | > 100 µM | – | > 100 µM | – | > 100 µM | – | > 100 µM | – | > 100 µM | – | > 100 µM | – | > 100 µM | – | > 100 µM | – | > 100 µM | – | > 100 µM
11 | Cn1cc(-c2ccc3c(c2)ncn3-c2ccc(CC(=O)Nc3cc(C(C)(C)C)on3)cc2)cn1 | 0.122 µM | 0.461 µM | 1.49 µM | 8.76 µM | 1.19 µM | > 40.9 µM | 2.6 µM | > 36.7 µM | 2.27 µM | 13.9 µM | 0.501 µM | 19.1 µM | 1.26 µM | > 38.8 µM | 1.99 µM | 5.14 µM | 2.93 µM | > 42.7 µM | 1.53 µM | 11.6 µM
12 | COc1cc2c(c(Br)c1N)-c1cc(Br)c(N)cc1C2=O | > 61.7 µM | > 100 µM | > 89.9 µM | > 100 µM | > 100 µM | > 100 µM | > 100 µM | > 100 µM | 9.15 µM | 59.6 µM | 1.77 µM | > 100 µM | > 100 µM | > 100 µM | > 100 µM | > 100 µM | 4.58 µM | > 100 µM | > 100 µM | > 100 µM
13 | CC(=O)NNc1nc(C)c(C(/C=C/c2ccc3c(c2)OCO3)=N/NC(=O)c2ccncc2)s1 | – | > 100 µM | – | > 100 µM | – | > 100 µM | – | > 100 µM | – | > 100 µM | – | > 100 µM | – | > 100 µM | – | > 100 µM | – | > 100 µM | – | > 100 µM
14 | O=C(O)Cc1ccccc1 | > 1000 µM | > 1000 µM and 1700 µM | > 1000 µM | > 2000 µM | > 1000 µM | > 1000 µM and 1710 µM | – | > 2000 µM | > 1000 µM | > 2000 µM | > 1000 µM | > 1000 µM and 727 µM | – | > 2000 µM | > 1000 µM | > 2000 µM | > 1000 µM | > 2000 µM | > 1000 µM | > 2000 µM
15 | C/C=C(\C)C(=O)O[C@@H]1C=CC(=O)O[C@H]1COC(=O)[C@H](C)O | 15.2 µM | 30.4 µM | 18.7 µM | 51.9 µM | 5.68 µM | 19.5 µM | 5.93 µM | 20.9 µM | 4.96 µM | 20.7 µM | 11.5 µM | 31 µM | 27.4 µM | 62.1 µM | 17.5 µM | 68.6 µM | 11.5 µM | 25 µM | 12.4 µM | 25.5 µM
16 | CC1(C)CCC(CN2CCN(c3ccc(C(=O)NS(=O)(=O)c4ccc(NCC5CCOCC5)c([N+](=O)[O-])c4)c(Oc4cnc5[nH]ccc5c4)c3)CC2)=C(c2ccc(Cl)cc2)C1 | 1.58 µM | 4.43 µM | 2.4 µM | 11.8 µM | 3.1 µM | 11.2 µM | 2.49 µM | 6.45 µM | 2.46 µM | 7.23 µM | 3.53 µM | 20.4 µM | 2.35 µM | 7.42 µM | 1.63 µM | 3.36 µM | 2.9 µM | 11.5 µM | 0.782 µM | 2.16 µM
17 | CCOc1ccc(NC(=O)/C(=C/c2ccccc2)C(C)=O)cc1 | – | 35.3 µM | – | 60.8 µM | – | 32.4 µM | – | 33.3 µM | – | 7.66 µM | – | 27.5 µM | – | 29.4 µM | – | 26.4 µM | – | 28.5 µM | – | 20.1 µM
18 | C#CCSc1nnnn1-c1ccc(Br)c(C)c1 | 18.9 µM | 81.1 µM | 38 µM | > 100 µM | 29 µM | > 100 µM | 30.3 µM | 96 µM | 19.1 µM | 79.4 µM | 31.1 µM | > 100 µM | 29.5 µM | > 100 µM | 21.6 µM | 57 µM | 12 µM | > 100 µM | 18.3 µM | 91.2 µM
19 | CCOC(=O)C1=C(O)CSC1=Nc1ccc(N=C2SCC(O)=C2C(=O)OCC)cc1 | – | 50.5 µM | – | 93 µM | – | 57.7 µM | – | 60.2 µM | – | 32.3 µM | – | 94.8 µM | – | 63.1 µM | – | 33.7 µM | – | 63 µM | – | 44.2 µM
20 | COc1ccc(C2=NN(c3ccc(S(N)(=O)=O)cc3)C(c3ccc(Cl)cc3)C2)c(O)c1 (stereo unspecified) | 3.89 µM | 14.5 µM | 3.38 µM | 35.1 µM | 2.98 µM | 13.9 µM | 2.83 µM | 8.68 µM | 2.42 µM | 11.1 µM | 4.51 µM | 37.5 µM | 3.1 µM | 14.5 µM | 6.3 µM | 22.7 µM | 4.47 µM | 21.2 µM | 5.89 µM | 19.7 µM
